According to article PMC10221159, “Investigation of N-Acetyltransferase 2-Mediated Drug Interactions of Amifampridine: In Vitro and In Vivo Evidence of Drug Interactions with Acetaminophen” (Pharmaceutics, 2023):
Where two headings read alike, the source gives them in different places.

Experiments:
[1] = In vitro metabolic profile of amifampridine (3-N-acetylamifampridine formation) in rat liver S9 fraction; type: in vitro ADME
Protocol: An in vitro metabolic study was performed to investigate the metabolic profile of amifampridine in the rat liver S9 fraction. The reaction mixture, which consisted of rat liver S9 fraction (2 mg/mL protein) and 2 mM acetyl-CoA in potassium phosphate buffer, was prepared and incubated for 5 min in a thermal mixer (200 oscillations/min) at 37 °C. Then, amifampridine was added to the reaction mixture to make the final concentrations of amifampridine at 2, 10, 20, 50, 100, 500, and 1000 μM. After further incubation for 15 min at 37 °C, 50 μL of the sample was transferred into the tube containing 200 μL of ice-cold potassium phosphate buffer and mixed by vortexing. An amount of 50 μL of the mixture was then transferred into the tube containing 100 μL of internal standard (IS; 5 ng/mL ondansetron in acetonitrile), followed by vortexing and centrifugation at 14,000 rpm for 15 min at 4 °C. The supernatant was transferred into vials for HPLC-tandem mass spectrometry (MS/MS) analysis and the concentration of 3-N-acetylamifampridine was determined.
The Vm and Km values, Michaelis–Menten parameters, were determined by linear regression using Lineweaver–Burk equation, as follows: 1/v=Km/Vmax×1/S+1/Vmax where v is the rate of amifampridine metabolism to 3-N-acetylamifampridine in the S9 fraction, [S] is the concentration of amifampridine, Vmax is the maximum metabolic rate of amifampridine, and Km is the concentration of amifampridine at half Vmax. The intrinsic clearance (CLint) was calculated using Vmax/Km, with the assumption that Km is much greater than [S], as is usual in clinical practice.

[2] = In vivo pharmacokinetic interaction study in rats (plasma); set-up: species or system rat; conditions: oral amifampridine 2 mg/kg; for AUC(0-inf) / AUC(0-t) / CL/F / Cmax / MRT / Tmax / Vd/F / half-life / CL renal: male, Sprague-Dawley, rat, po, 2 mg/kg; for AUC(0-inf) / AUC(0-t) / CL/F / Cmax / MRT / Tmax / Vd/F / half-life: plasma; for CL renal: urine and plasma, renal clearance
Protocol: Male Sprague Dawley (SD) rats (7–8 weeks old, 260–330 g) were purchased from Orient Bio, Inc. (Seongnam, Korea). The rats were housed under a light/dark cycle for 12 h and were left for at least a week before the experiment to adapt to the laboratory environment. Water and food were provided ad libitum. The rats were fasted overnight with free access to water prior to pharmacokinetic studies. The protocols for animal experiments were approved in accordance with the Guidelines for Animal Care and Use of Gachon University (approval no.: GIACUC-R2021006; 13 May 2021).
The rats were anesthetized with a mixture of Rompun and Zoletil by intramuscular injection and received an intraperitoneal injection of vehicle (40:60 PEG400:normal saline; n = 8) or 100 mg/kg acetaminophen (n = 8). After 10 min, 2 mg/kg amifampridine (dissolved in saline) was administered orally. Blood samples were collected at 0, 5, 15, 30, 60, 90, 120, 240, and 360 min and centrifuged at 14,000 rpm for 15 min at 4 °C. For analysis of amifampridine and 3-N-acetylamifampridine, 50 μL of plasma samples was mixed with 100 μL IS solution (5 ng/mL ondansetron in acetonitrile) and the mixture was vortexed followed by centrifugation at 14,000 rpm for 15 min at 4 °C. For the analysis of acetaminophen, 200 μL of IS (tolbutamide 200 ng/mL in methanol) was added to the plasma samples which were diluted 10-fold using the blank plasma and then vortexed for one minute. Further, the samples were centrifuged at 14,000 rpm for 15 min at 4 °C. The supernatants were transferred to LC vials for quantification.
Non-compartment analysis (NCA) was performed to calculate the pharmacokinetic parameters for the in vivo study using WinNonlin (Version 8.3. (Pharsight Corporation, Mountain View, CA, USA)). The area under the plasma concentration–time curve from time 0 to infinity (AUCinf) was calculated by the linear trapezoidal method and standard extrapolation using λ, where λ represents the slope of the terminal phase in a semi-log graph for plasma concentration–time profiles. Renal clearance (CLr) was determined by dividing the accumulated amount of drug excreted in the urine by AUCinf.

[3] = humans, cited from earlier work
[4] = set-up: method as in PMID 25692017; conditions: NAT2 slow vs fast acetylators; cited from earlier work
[5] = Urinary excretion of amifampridine and 3-N-acetylamifampridine in rats; type: in vivo, rat; conditions: Sprague Dawley, rat, urine, oral, 2 mg/kg, 24 h, oral amifampridine 2 mg/kg, read-out: total urinary recovery
Protocol: Urine samples were collected at intervals of 0–4, 4–8, and 8–24 h after the administration of amifampridine to control and acetaminophen-treated rats (n = 6), as described above, and were diluted 500-fold with potassium phosphate buffer. An amount of 200 μL of IS was then added to the samples and vortexed for a minute. After centrifugation at 14,000 rpm for 15 min at 4 °C, the supernatant was transferred into vials for quantification of amifampridine and 3-N-acetylamifampridine.

[6] = acetaminophen-treated (100 mg/kg) vs control rats
[7] = acetaminophen-treated group (100 mg/kg ip)

SMILES: Nc1ccncc1N [amifampridine]
- Vmax ([1]; 3-N-acetylamifampridine formation, rat liver S9, Lineweaver–Burk plot): 5130 ± 1100 pmol/min/mg protein
- intrinsic clearance in liver S9 fraction ([1]; liver S9 fraction, Vmax/Km, rat liver S9, read-out: CLint): 78 ± 11 µL/min/mg
- Km at 15 min ([1]; rat liver S9 fraction, 3-N-acetylamifampridine formation, rat liver S9 (2 mg/mL protein), Lineweaver–Burk plot): 66.6 ± 24.2 µM
- increase in AUCinf [2, 6]: 185.64%
- increase in Cmax [2, 6]: 208.34%
- AUC(0-inf) [2, 7]: 434 ng·h/mL
- AUC(0-t) [2, 7]: 414 ng·h/mL
- CL/F [2, 7]: 81.7 ± 21.2 mL/min/kg
- Cmax [2, 7]: 200 ± 100 ng/mL
- MRT [2, 7]: 2.08 h
- Tmax [2, 7]: 1 h
- Vd/F [2, 7]: 9.83 ± 4.69 L/kg
- half-life [2, 7]: 1.36 ± 0.416 h
- AUC(0-inf) ([2]; control group): 152 ng·h/mL
- AUC(0-t) ([2]; control group): 141 ng·h/mL
- CL/F ([2]; control group): 225 ± 38.3 mL/min/kg
- Cmax ([2]; control group): 70 ± 20 ng/mL
- MRT ([2]; control group): 2.29 h
- Tmax ([2]; control group): 0.781 h
- Vd/F ([2]; control group): 26.9 L/kg
- half-life ([2]; control group): 1.4 ± 0.352 h
- CL renal [2, 7]: 3.87 ± 0.91 mL/min
- CL renal ([2]; control group): 4.89 ± 1.71 mL/min
- dose excreted via the urine within 24 h ([3]; after administration of amifampridine): 19%
- dose excreted via the urine within 24 h as amifampridine plus 3-N-acetylamifampridine [3]: More than 90%
- elimination half-life [3]: approximately 2.5 h
- AUC higher in slow acetylators than in fast acetylators [4]: 5–10 fold
- Cmax higher in slow acetylators than in fast acetylators [4]: approximately 3.5 fold
- higher frequency of drug-related treatment-emergent adverse events in slow than fast acetylators [4]: more than 10 fold
- dose excreted ([5]; acetaminophen-treated rats): 18.9%
- dose excreted ([5]; control rats): 6.7%
